Data taken from ChEMBL document CHEMBL4418912, “Methods of identifying antagonists of the hTAS2R46 bitter taste receptor” (2014).
The source made the active and inactive calls. The rule behind the calls is not given here.

What was measured:
Format in all cases: functional, cell-based
[1] = target: T1, Taste receptor type 2 member 13 (Homo sapiens) (UniProt Q9NYV9); test: Antagonist activity at recombinant human N-terminal rat ST3 receptor-fused TAS2R13 expressed in HEK293T cells co-expressing Galpha16gust44 assessed as inhibition of denatonium benzoate-induced increase in intracellular calcium level at 100 uM by FLIPR assay
T1 sequence (whole entry): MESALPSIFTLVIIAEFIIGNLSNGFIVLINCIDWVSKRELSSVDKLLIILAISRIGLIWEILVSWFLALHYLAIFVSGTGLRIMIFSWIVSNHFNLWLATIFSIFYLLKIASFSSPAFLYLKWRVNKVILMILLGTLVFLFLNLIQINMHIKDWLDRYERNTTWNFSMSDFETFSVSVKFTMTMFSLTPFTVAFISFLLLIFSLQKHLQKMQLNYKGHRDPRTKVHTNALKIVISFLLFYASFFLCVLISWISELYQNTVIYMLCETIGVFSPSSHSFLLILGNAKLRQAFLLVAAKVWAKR

[2] = target: T2, Taste receptor type 2 member 46 (Homo sapiens) (UniProt P59540); test: Agonist activity at recombinant human N-terminal rat ST3 receptor-fused TAS2R46 expressed in HEK293T cells co-expressing Galpha16gust44 assessed as increase in intracellular calcium level at 100 uM by FLIPR assay
T2 sequence (whole entry): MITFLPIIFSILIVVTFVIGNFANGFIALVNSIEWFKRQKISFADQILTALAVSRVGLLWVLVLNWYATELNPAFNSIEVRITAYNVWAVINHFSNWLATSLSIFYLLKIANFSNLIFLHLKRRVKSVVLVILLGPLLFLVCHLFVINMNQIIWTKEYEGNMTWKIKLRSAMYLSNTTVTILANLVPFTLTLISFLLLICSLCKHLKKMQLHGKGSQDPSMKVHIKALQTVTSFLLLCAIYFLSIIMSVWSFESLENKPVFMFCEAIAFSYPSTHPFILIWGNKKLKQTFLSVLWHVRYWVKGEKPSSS

[3] = target: T3, Taste receptor type 2 member 8 (Homo sapiens) (UniProt Q9NYW2); test: Antagonist activity at recombinant human N-terminal rat ST3 receptor-fused TAS2R8 expressed in HEK293T cells co-expressing Galpha16gust44 assessed as inhibition of chloramphenicol-induced increase in intracellular calcium level at 100 uM by FLIPR assay
T3 sequence (whole entry): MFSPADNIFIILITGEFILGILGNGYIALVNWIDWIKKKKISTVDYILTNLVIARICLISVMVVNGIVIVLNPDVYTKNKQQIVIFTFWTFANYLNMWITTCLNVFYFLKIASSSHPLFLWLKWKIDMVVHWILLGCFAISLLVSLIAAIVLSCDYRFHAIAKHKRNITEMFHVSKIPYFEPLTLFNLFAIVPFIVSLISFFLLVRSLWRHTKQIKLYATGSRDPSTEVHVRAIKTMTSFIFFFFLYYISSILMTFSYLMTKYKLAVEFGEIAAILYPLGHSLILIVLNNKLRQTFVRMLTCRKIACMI

[4] = target: T4, Taste receptor type 2 member 1 (Homo sapiens) (UniProt Q9NYW7); test: Antagonist activity at recombinant human N-terminal rat ST3 receptor-fused TAS2R1 expressed in HEK293T cells co-expressing Galpha16gust44 assessed as inhibition of trans-isocohumulone-induced increase in intracellular calcium level at 100 uM by FLIPR assay
T4 sequence (whole entry): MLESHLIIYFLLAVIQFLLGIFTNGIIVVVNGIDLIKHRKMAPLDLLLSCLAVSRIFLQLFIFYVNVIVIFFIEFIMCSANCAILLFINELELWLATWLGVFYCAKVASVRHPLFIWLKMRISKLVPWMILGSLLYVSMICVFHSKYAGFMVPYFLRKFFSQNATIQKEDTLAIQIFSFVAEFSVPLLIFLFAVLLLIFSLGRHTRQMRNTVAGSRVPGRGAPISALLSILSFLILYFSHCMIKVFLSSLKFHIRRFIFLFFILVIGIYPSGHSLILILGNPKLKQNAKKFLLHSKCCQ

[5] = target: T5, Taste receptor type 2 member 9 (Homo sapiens) (UniProt Q9NYW1); test: Antagonist activity at recombinant human N-terminal rat ST3 receptor-fused TAS2R9 expressed in HEK293T cells co-expressing Galpha16gust44 assessed as inhibition of ofloxacin-induced increase in intracellular calcium level at 100 uM by FLIPR assay
T5 sequence (whole entry): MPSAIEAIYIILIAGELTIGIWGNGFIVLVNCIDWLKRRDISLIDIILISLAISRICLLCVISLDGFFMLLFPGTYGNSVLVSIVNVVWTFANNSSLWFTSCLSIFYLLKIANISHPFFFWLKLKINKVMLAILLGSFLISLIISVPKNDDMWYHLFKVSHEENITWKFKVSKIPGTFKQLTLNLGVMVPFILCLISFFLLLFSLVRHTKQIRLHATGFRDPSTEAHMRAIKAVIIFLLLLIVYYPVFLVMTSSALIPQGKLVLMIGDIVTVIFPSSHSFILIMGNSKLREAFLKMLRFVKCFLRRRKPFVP

[6] = target: T6, Taste receptor type 2 member 38 (Homo sapiens) (UniProt P59533); test: Antagonist activity at recombinant human N-terminal rat ST3 receptor-fused TAS2R38 expressed in HEK293T cells co-expressing Galpha16gust44 assessed as inhibition of phenylthiocarbamide-induced increase in intracellular calcium level at 100 uM by FLIPR assay
T6 sequence (whole entry): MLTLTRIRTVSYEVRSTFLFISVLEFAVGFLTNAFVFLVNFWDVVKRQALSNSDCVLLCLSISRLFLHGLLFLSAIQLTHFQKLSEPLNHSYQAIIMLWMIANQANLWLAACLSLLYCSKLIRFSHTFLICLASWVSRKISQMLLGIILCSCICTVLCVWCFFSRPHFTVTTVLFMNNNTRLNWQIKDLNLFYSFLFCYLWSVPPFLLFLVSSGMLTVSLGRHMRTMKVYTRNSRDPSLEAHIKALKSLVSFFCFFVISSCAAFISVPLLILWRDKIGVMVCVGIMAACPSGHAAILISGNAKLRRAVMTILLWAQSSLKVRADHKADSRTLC

[7] = target: T7, Taste receptor type 2 member 30 (Homo sapiens) (UniProt P59541); test: Antagonist activity at recombinant human N-terminal rat ST3 receptor-fused TAS2R47 expressed in HEK293T cells co-expressing Galpha16gust44 assessed as inhibition of brucine-induced intracellular calcium level at 100 uM by FLIPR assay
T7 sequence (whole entry): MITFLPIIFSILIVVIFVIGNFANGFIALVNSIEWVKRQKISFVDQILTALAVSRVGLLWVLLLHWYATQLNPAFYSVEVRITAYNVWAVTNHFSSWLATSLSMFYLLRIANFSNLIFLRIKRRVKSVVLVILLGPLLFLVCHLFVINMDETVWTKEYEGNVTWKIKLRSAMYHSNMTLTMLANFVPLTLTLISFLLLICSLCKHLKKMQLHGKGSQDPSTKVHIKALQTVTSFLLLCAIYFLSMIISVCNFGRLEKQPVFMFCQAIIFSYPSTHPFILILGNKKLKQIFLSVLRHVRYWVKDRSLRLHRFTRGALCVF

SMILES	inhibition [1]	Activity [2]	inhibition [3]	inhibition [4]	inhibition [5]	inhibition [6]	inhibition [7]
C/C1=C\C[C@H](O)[C@@H](C)C[C@H]2OC(=O)[C@@H](C)[C@@H]2CC1	inactive	Active	inactive	inactive	inactive	inactive	Active
C/C1=C\C[C@H](O)/C(C)=C/[C@H]2OC(=O)[C@@H](C)[C@@H]2CC1	inactive	inactive	inactive	inactive	inactive	inactive	Active
